Test results as given in patent EP4722207A1, “OXOISOINDOLINYL-SUBSTITUTED TETRAHYDROPYRIMIDINEDIONE DERIVATIVE AND USE THEREOF” (Gluetacs Therapeutics (Shanghai) Co., Ltd., priority 2023, dated 2024).
pIC50: −log10 of the molar value.

How the values were obtained:
[1] = target: T1, human Cereblon WT GST-tagged protein (Homo sapiens, UniProt Q96SW2); experiment: CRBN-binding affinity, CEREBLON BINDING kit (HTRF); settings: for inhibition at 0.5 µM: read-out: Inhibition Rate at 0.5 µM (%); for inhibition at 2 µM: read-out: Inhibition Rate at 2 µM (%)
T1 construct: purchased CISBIO 64BDCRBNPEH
T1 sequence (Q96SW2 whole entry): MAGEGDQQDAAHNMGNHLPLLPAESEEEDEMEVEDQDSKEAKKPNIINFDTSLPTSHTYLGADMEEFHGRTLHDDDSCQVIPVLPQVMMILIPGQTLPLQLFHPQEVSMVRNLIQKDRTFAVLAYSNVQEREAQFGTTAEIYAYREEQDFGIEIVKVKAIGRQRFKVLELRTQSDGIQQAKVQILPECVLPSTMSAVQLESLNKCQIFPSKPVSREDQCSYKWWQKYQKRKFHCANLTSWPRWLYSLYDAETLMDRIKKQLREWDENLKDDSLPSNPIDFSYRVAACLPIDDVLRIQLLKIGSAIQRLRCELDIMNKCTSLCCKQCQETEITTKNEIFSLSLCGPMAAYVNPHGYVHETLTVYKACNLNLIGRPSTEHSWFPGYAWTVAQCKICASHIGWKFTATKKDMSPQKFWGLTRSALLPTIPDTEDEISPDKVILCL
Excerpt: The CEREBLON BINDING kits (specification: 10,000 tests; product number: Catalog # 64BDCRBNPEH; CISBIO company) was used to determine the CRBN binding ability of the compounds to be tested through a HTRF method (homogeneous time-resolved fluorescence). The specific methods are as follows: • 1. […] Specifically, diluent #9 (1X) solution was used as the diluent, and multiple concentration gradients were set. […] Into the 96-well plate, the diluted test compounds and corresponding detection reagents were added, resulting in final test compound concentrations of 2 µM and 0.5 µM, respectively. […] Then, 2.5 µL of human Cereblon WT GST-tagged protein solution was added to each well. Finally, 5 µL of the thoroughly mixed Thalidomide-Re reagent and GST Eu antibody working solution were added to each of the aforementioned wells. […] The blank control wells were sequentially added with 2.5 µL of diluent #9 (1X) solution, 2.5 µL of binding buffer, and 5 µL of thoroughly mixed Thalidomide-Re reagent and GST Eu antibody working solution. • 4. […] OD 620 nm control is the absorbance value of the blank control well at an emission wavelength of 620 nm. […] OD 620 nm Std0 is the absorbance value of the solvent control well at an emission wavelength of 620 nm.

MM.1S = experiment: Cell viability assay (CellTiter-Meiluncell Luminescent), tumor cell proliferation, MM.1S; settings: Homo sapiens, MM1.S, 96 h; for inhibition at 0.01 µM: read-out: Inhibition Rate at 10 nM (%); for inhibition at 0.5 µM: read-out: Inhibition Rate at 500 nM (%)
H292 = experiment: Cell viability assay (CellTiter-Meiluncell Luminescent), tumor cell proliferation, H292; settings: Homo sapiens, NCI-H292, 96 h; for inhibition at 0.01 µM: read-out: Inhibition Rate at 10 nM (%); for inhibition at 0.5 µM: read-out: Inhibition Rate at 500 nM (%)
Procedure: (§1) The tumor cells used herein were cultured in a cell culture medium listed in table 2 at 37°C in an incubator with 5% CO2. Prior to experimentation, all cell lines used were correctly identified by STR profiling, and tested negative for mycoplasma contamination using a mycoplasma detection kit through routine screenings.
(§2) On the following day, the test compounds of the present disclosure were subjected to serial dilution. […] Subsequently, 0.5 µL of the test compound dilution was transferred into the 96-well plate containing the cells, with each well containing 100 µL of cell culture medium. […] Into the 96-well plate, the diluted test compounds and corresponding detection reagents were added, resulting in final test compound concentrations of 500 nM and 10 nM, respectively. The experimental procedure is described below using the diluted 2 µM test compound as an example.
(§3) After the cells were treated with the compounds of the present disclosure for a specified period, the cell viability assay reagent was added to the culture medium according to the kit's instructions to determine cell viability. […] All controls were treated using the same procedure as the compounds of the present disclosure. The growth inhibition curves for the compounds of the present disclosure were plotted using Prism GraphPad software, and the IC50 values were calculated therefrom.

MV-4-11 = experiment: Cell viability assay (CellTiter-Meiluncell Luminescent), tumor cell proliferation, MV-4-11; settings: Homo sapiens, MV4-11, 96 h; for inhibition at 0.01 µM: read-out: Inhibition Rate at 10 nM (%); for inhibition at 0.5 µM: read-out: Inhibition Rate at 500 nM (%)
H2228 = experiment: Cell viability assay (CellTiter-Meiluncell Luminescent), tumor cell proliferation, H2228; settings: Homo sapiens, NCI-H2228, 96 h; for inhibition at 0.01 µM: read-out: Inhibition Rate at 10 nM (%); for inhibition at 0.5 µM: read-out: Inhibition Rate at 500 nM (%)
Procedure: as §1, §2, §3

MDA-MB-231 = experiment: Cell viability assay (CellTiter-Meiluncell Luminescent), tumor cell proliferation, MDA-MB-231; settings: Homo sapiens, MDA-MB-231, 96 h
IKZF3 = target: T2, IKZF3 (Homo sapiens, UniProt Q96SW2+Q9UKT9); experiment: Western-blot assay, substrate protein degradation in hPBMCs: IKZF3; assay type: cell-based; settings: 24 hours of compound treatment, 50 nM and 500 nM
T2 construct: effects of the compounds of the present disclosure on the expression of target proteins in cells; endogenous in cells; host or cells: human PBMCs (hPBMCs)
T2 sequence (Q9UKT9 whole entry): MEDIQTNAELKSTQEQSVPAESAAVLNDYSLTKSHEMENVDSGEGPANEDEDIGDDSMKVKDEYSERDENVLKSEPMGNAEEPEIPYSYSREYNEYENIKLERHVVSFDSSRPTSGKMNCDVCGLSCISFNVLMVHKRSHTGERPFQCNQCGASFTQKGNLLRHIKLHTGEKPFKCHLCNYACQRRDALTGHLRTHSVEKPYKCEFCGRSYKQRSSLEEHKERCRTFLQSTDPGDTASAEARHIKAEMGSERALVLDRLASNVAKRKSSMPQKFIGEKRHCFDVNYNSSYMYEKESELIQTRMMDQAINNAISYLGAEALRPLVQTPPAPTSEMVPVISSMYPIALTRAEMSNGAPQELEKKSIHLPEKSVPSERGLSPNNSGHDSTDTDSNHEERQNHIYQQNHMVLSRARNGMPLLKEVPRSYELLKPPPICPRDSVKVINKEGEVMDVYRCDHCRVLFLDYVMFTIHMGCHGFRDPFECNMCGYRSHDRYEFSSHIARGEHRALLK
T2 sequence (Q96SW2 whole entry): as the sequence (Q96SW2 whole entry) above
T2 sequence (Q16531 whole entry partner): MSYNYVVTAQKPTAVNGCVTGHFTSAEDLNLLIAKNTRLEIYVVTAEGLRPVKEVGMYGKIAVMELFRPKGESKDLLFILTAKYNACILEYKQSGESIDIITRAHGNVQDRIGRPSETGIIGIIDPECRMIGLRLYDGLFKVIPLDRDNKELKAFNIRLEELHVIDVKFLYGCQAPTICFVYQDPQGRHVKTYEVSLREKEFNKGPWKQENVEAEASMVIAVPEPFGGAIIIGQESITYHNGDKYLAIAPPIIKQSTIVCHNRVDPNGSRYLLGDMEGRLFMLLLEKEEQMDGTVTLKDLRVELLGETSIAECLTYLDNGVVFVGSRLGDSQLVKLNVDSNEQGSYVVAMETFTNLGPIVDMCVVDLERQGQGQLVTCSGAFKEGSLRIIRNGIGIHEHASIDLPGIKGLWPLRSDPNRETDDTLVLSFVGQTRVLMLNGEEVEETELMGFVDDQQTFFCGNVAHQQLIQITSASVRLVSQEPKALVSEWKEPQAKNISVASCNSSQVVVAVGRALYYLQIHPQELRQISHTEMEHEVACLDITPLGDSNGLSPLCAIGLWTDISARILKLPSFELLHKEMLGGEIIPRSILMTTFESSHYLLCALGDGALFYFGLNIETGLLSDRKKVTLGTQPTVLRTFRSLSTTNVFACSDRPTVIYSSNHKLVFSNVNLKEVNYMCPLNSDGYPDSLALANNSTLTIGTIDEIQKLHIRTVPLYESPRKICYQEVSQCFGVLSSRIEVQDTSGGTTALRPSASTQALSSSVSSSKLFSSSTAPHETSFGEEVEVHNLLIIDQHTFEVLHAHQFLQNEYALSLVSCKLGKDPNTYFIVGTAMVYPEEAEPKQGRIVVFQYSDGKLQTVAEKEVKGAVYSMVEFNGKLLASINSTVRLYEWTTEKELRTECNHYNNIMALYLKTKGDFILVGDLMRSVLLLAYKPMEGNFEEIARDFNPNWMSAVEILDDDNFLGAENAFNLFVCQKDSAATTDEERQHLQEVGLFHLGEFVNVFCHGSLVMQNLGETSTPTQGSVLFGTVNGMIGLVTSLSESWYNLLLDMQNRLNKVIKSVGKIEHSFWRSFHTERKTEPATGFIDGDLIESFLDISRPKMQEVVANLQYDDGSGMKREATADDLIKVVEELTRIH

IKZF1 = target: T3, IKZF1 (Homo sapiens, UniProt Q13422+Q96SW2); experiment: Western-blot assay, substrate protein degradation in hPBMCs: IKZF1; assay type: cell-based; settings: 24 hours of compound treatment, 50 nM and 500 nM
T3 construct: effects of the compounds of the present disclosure on the expression of target proteins in cells; endogenous in cells; host or cells: human PBMCs (hPBMCs)
T3 sequence (Q13422 whole entry): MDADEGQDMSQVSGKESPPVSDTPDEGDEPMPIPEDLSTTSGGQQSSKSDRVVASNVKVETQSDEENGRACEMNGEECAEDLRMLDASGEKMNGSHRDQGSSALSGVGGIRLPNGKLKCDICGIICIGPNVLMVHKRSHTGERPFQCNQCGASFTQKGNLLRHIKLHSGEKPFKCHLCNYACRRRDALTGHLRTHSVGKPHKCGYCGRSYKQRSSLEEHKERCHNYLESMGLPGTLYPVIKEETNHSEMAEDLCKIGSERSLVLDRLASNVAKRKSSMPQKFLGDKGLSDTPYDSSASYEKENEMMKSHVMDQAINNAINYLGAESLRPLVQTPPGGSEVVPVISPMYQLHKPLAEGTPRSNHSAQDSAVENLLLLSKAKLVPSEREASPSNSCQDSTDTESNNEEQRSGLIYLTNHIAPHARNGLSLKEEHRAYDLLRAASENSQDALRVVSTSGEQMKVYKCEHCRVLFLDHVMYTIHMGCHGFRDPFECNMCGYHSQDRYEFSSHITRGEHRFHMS
T3 sequence (Q96SW2 whole entry): as the sequence (Q96SW2 whole entry) above
T3 sequence (Q16531 whole entry partner): as the sequence (Q16531 whole entry partner) above

WEE1 = target: T4, WEE1 (Homo sapiens, UniProt P30291+Q96SW2); experiment: Western-blot assay, substrate protein degradation in hPBMCs: WEE1; assay type: cell-based; settings: 24 hours of compound treatment, 50 nM and 500 nM
T4 construct: effects of the compounds of the present disclosure on the expression of target proteins in cells; endogenous in cells; host or cells: human PBMCs (hPBMCs)

IKZF2 = target: T5, IKZF2 (Homo sapiens, UniProt Q96SW2+Q9UKS7); experiment: Western-blot assay, substrate protein degradation in hPBMCs: IKZF2; assay type: cell-based; settings: 24 hours of compound treatment, 50 nM and 500 nM
T5 construct: effects of the compounds of the present disclosure on the expression of target proteins in cells; endogenous in cells; host or cells: human PBMCs (hPBMCs)
T5 sequence (Q9UKS7 whole entry): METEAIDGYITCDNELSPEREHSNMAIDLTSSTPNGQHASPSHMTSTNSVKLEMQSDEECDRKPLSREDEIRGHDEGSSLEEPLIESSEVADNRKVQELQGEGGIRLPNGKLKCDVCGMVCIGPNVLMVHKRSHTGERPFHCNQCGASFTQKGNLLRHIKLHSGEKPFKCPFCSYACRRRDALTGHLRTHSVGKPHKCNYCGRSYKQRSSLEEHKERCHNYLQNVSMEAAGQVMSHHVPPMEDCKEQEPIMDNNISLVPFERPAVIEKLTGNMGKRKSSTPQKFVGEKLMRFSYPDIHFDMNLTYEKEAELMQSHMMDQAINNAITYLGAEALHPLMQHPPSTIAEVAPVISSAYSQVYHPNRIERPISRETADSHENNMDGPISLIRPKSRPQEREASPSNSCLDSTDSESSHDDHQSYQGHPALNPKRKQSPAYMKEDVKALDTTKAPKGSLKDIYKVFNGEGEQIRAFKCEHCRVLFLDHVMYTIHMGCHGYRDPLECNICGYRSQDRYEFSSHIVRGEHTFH
T5 sequence (Q96SW2 whole entry): as the sequence (Q96SW2 whole entry) above
T5 sequence (Q16531 whole entry partner): as the sequence (Q16531 whole entry partner) above

CK1α = target: T6, CK1α (Homo sapiens, UniProt P48729+Q96SW2); experiment: Western-blot assay, substrate protein degradation in hPBMCs: CK1α; assay type: cell-based; settings: 24 hours of compound treatment, 50 nM and 500 nM
T6 construct: effects of the compounds of the present disclosure on the expression of target proteins in cells; endogenous in cells; host or cells: human PBMCs (hPBMCs)
T6 sequence (P48729 whole entry): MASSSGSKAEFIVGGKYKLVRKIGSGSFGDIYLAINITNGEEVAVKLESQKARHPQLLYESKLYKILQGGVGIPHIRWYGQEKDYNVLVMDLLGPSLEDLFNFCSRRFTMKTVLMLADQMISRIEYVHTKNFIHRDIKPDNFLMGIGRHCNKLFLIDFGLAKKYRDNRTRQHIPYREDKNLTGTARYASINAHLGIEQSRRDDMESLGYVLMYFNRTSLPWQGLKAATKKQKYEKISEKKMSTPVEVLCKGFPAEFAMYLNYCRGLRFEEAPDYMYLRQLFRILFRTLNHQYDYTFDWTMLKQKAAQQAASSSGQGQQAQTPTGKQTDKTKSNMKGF
T6 sequence (Q96SW2 whole entry): as the sequence (Q96SW2 whole entry) above
T6 sequence (Q16531 whole entry partner): as the sequence (Q16531 whole entry partner) above

GSPT1 = target: T7, GSPT1 (Homo sapiens, UniProt P15170+Q96SW2); experiment: Western-blot assay, substrate protein degradation in hPBMCs: GSPT1; assay type: cell-based; settings: 24 hours of compound treatment, 50 nM and 500 nM
T7 construct: effects of the compounds of the present disclosure on the expression of target proteins in cells; endogenous in cells; host or cells: human PBMCs (hPBMCs)
T7 sequence (P15170 whole entry): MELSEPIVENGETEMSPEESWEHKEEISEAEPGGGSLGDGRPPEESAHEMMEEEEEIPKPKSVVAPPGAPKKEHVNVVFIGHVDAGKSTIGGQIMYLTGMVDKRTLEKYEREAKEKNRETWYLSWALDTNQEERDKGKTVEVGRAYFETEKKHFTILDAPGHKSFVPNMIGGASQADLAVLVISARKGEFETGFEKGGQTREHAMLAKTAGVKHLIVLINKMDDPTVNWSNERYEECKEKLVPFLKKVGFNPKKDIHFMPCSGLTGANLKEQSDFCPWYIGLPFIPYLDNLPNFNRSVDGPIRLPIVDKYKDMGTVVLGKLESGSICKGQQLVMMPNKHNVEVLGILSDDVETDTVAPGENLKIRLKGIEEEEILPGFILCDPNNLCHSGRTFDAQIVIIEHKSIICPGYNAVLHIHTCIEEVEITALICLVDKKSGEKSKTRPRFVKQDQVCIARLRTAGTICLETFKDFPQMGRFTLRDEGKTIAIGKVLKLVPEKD
T7 sequence (Q96SW2 whole entry): as the sequence (Q96SW2 whole entry) above
T7 sequence (Q16531 whole entry partner): as the sequence (Q16531 whole entry partner) above

pIC50 ([1]; 3 hours at room temperature) | IC50 (MM.1S; read-out: inhibitory activity (IC50, nM) against tumor cells proliferation, MM.1S) | inhibition at 0.5 µM [1] | inhibition at 2 µM [1] | SMILES | inhibition at 0.01 µM (H292) | inhibition at 0.5 µM (H292) | inhibition at 0.01 µM (MV-4-11) | inhibition at 0.5 µM (MV-4-11) | inhibition at 0.01 µM (H2228) | inhibition at 0.5 µM (H2228) | inhibition at 0.01 µM (MM.1S) | inhibition at 0.5 µM (MM.1S) | inhibition at 0.01 µM (MDA-MB-231; read-out: Inhibition Rate at 10 nM (%)) | inhibition at 0.5 µM (MDA-MB-231; read-out: Inhibition Rate at 500 nM (%)) | substrate protein remaining % IKZF3 (IKZF3) | substrate protein remaining % IKZF1 (IKZF1) | substrate protein remaining % WEE1 (WEE1) | substrate protein remaining % IKZF2 (IKZF2) | substrate protein remaining % CK1α (CK1α) | substrate protein remaining % GSPT1 (GSPT1)
5.82 to 6.00 | 100 to 300 nM | – | – | N#Cc1ccc(N2CCN(Cc3ccc(COc4cccc5c4CN(N4CCC(=O)NC4=O)C5=O)cc3)CC2)c(F)c1 [GT-06132, 4-(4-(4-(((2-(2,4-dioxotetrahydropyrimidin-1(2H)-yl)-1-oxoisoindolin-4-yl)oxy)methyl)benzyl)piperazin-1-yl)-3-fluorobenzonitrile] | – | – | – | – | – | – | – | – | – | – | – | – | – | – | – | –
– | – | 20 to 30% | 53 to 60% | Cc1nc(C2=CCN(Cc3ccc4c(c3)CN(N3CCC(=O)NC3=O)C4=O)CC2)c2c3c(sc2n1)CCCC3 [GT-08177, 1-(5-((4-(2-methyl-5,6,7,8-tetrahydrobenzo[4,5]thieno[2,3-d]pyrimidin-4-yl)-3,6-dihydropyridin-1(2H)-yl)methyl)-1-oxoisoindolin-2-yl)dihydropyrimidine-2,4(1H,3H)-dione] | 10 to 15% | 10 to 15% | 40 to 60% | 30 to 40% | – | – | – | – | – | – | – | – | – | – | – | –
– | – | 20 to 30% | 53 to 60% | O=C1CCN(N2Cc3cc(CN4CC=C(c5ncnc6sc(-c7ccccc7)cc56)CC4)ccc3C2=O)C(=O)N1 [GT-08173, 1-(1-oxo-5-((4-(6-phenylthieno[2,3-d]pyrimidin-4-yl)-3,6-dihydropyridin-1(2H)-yl)methyl)isoindolin-2-yl)dihydropyrimidine-2,4(1H,3H)-dione] | – | – | 10 to 18% | 80 to 100% | 5 to 10% | 40 to 60% | -5 to 0% | 80 to 100% | 10 to 15% | 60 to 80% | – | – | – | – | – | –
– | – | 20 to 30% | 60 to 80% | O=C1CCN(N2Cc3cc(CN4CCN(c5ncnc6scc(-c7ccccc7)c56)CC4)ccc3C2=O)C(=O)N1 [GT-08065, 1-(1-oxo-5-((4-(5-phenylthieno[2,3-d]pyrimidin-4-yl)piperazin-1-yl)methyl)isoindolin-2-yl)dihydropyrimidine-2,4(1H,3H)-dione] | 20 to 40% | 20 to 40% | 30 to 40% | 10 to 18% | 20 to 25% | 25 to 30% | 20 to 30% | 20 to 30% | – | – | B (80%< substrate protein remaining %≤ 100%) | B (80%< substrate protein remaining %≤ 100%) | B (80%< substrate protein remaining %≤ 100%) | A (0% ≤ substrate protein remaining % ≤ 80%) | B (80%< substrate protein remaining %≤ 100%) | B (80%< substrate protein remaining %≤ 100%)
